Results reported in ChEMBL document CHEMBL3885881, “DrugMatrix”.

Species on record: Rattus norvegicus
Assay: DrugMatrix - Regimen: Daily Repeat
Type: toxicity, organism-based, Sprague-Dawley
Parameters: regimen Daily Repeat, gender Male, age 6-8 weeks
Conditions: in vivo, po, route oral GAVAGE, […]; for ABSOLUTE BASOPHIL / ABSOLUTE EOSINOPHIL / ABSOLUTE LYMPHOCYTE / ABSOLUTE MONOCYTE / ABSOLUTE SEGMENTED NEUTROPHIL / BASOPHIL / EOSINOPHIL / ERYTHROCYTE COUNT / HEMATOCRIT / HEMOGLOBIN / LEUKOCYTE COUNT / LYMPHOCYTE / MEAN CORPUSCULAR HEMOGLOBIN / MEAN CORPUSCULAR HEMOGLOBIN CONCENTRATION / MEAN CORPUSCULAR VOLUME / MONOCYTE / NEUTROPHIL / NUCLEATED RED BLOOD CELLS / PLATELET COUNT: tissue Blood; for ALANINE AMINOTRANSFERASE / ALBUMIN / ALKALINE PHOSPHATASE / ASPARTATE AMINOTRANSFERASE / BLOOD UREA NITROGEN / CARBON DIOXIDE / CHLORIDE / CHOLESTEROL / CREATINE PHOSPHOKINASE / CREATININE / GLUCOSE / LACTATE DEHYDROGENASE / LIPASE / PHOSPHORUS / POTASSIUM / SODIUM / TOTAL BILIRUBIN / TOTAL PROTEIN / URIC ACID: tissue Plasma
[1] = 0 mg/kg, 72 h, dose level Control, time 3 day
[2] = 0 mg/kg, 120 h, dose level Control, time 5 day
[3] = 100 mg/kg, 72 h, dose level M1, time 3 day

How did the “ABSOLUTE BASOPHIL” value [1] turn out when `CC(C)(c1ccc(O)cc1)c1ccc(O)cc1` [BISPHENOL A] was run?
Its value is 0 CELLS/uL.

What about the “ABSOLUTE EOSINOPHIL” value [1] of the same molecule?
Its value is 33 CELLS/uL.

What about the “ABSOLUTE LYMPHOCYTE” value [1] of the same molecule?
Its value is 9048.5 CELLS/uL.

And the “ABSOLUTE MONOCYTE” value [1]?
Its value is 80.17 CELLS/uL.

And the “ABSOLUTE SEGMENTED NEUTROPHIL” value [1]?
Its value is 1521.67 CELLS/uL.

What about the BASOPHIL [1] of the same molecule?
The BASOPHIL was 0%.

What about the EOSINOPHIL [1] of the same molecule?
The EOSINOPHIL was 0.17%.

What about the “ERYTHROCYTE COUNT” value [1] of the same molecule?
Its value is 5.46 x10E6/uL.

What about the HEMATOCRIT [1] of the same molecule?
The HEMATOCRIT was 32.87%.

And the HEMOGLOBIN [1]?
Its HEMOGLOBIN is 12.95 G/DL.

What about the “LEUKOCYTE COUNT” value [1] of the same molecule?
Its value is 10.68 x10E3/uL.

And the LYMPHOCYTE [1]?
The LYMPHOCYTE was 86.67%.

And the “MEAN CORPUSCULAR HEMOGLOBIN” value [1]?
Its value is 23.72 pg.

And the “MEAN CORPUSCULAR HEMOGLOBIN CONCENTRATION” value [1]?
Its value is 39.4 G/DL.

And the “MEAN CORPUSCULAR VOLUME” value [1]?
The value was 60.18 fL.

What about the MONOCYTE [1] of the same molecule?
Its MONOCYTE is 0.83%.

And the NEUTROPHIL [1]?
Its NEUTROPHIL is 12.33%.

And the “NUCLEATED RED BLOOD CELLS” value [1]?
Its value is 0 /100WBC.

And the “PLATELET COUNT” value [1]?
Its value is 1211.33 x10E3/uL.

What about the “ALANINE AMINOTRANSFERASE” value [1] of the same molecule?
Its value is 76.67 u/L.

What about the ALBUMIN [1] of the same molecule?
The ALBUMIN was 3.93 G/DL.

And the “ALKALINE PHOSPHATASE” value [1]?
Its value is 317.17 u/L.

And the “ASPARTATE AMINOTRANSFERASE” value [1]?
Its value is 81.17 u/L.

What about the “BLOOD UREA NITROGEN” value [1] of the same molecule?
The value was 12.33 mg/dL.

What about the “CARBON DIOXIDE” value [1] of the same molecule?
The value was 31.17 mmol/L.

And the CHLORIDE [1]?
Its CHLORIDE is 98.33 MEQ/L.

What about the CHOLESTEROL [1] of the same molecule?
Its CHOLESTEROL is 67.17 mg/dL.

And the “CREATINE PHOSPHOKINASE” value [1]?
Its value is 312.33 u/L.

What about the CREATININE [1] of the same molecule?
Its CREATININE is 0.19 mg/dL.

What about the GLUCOSE [1] of the same molecule?
The GLUCOSE was 165.5 mg/dL.

And the “LACTATE DEHYDROGENASE” value [1]?
Its value is 94.5 u/L.

And the LIPASE [1]?
Its LIPASE is 9.83 u/L.

And the PHOSPHORUS [1]?
Its PHOSPHORUS is 10.1 mg/dL.

What about the POTASSIUM [1] of the same molecule?
Its POTASSIUM is 5.16 MEQ/L.

What about the SODIUM [1] of the same molecule?
Its SODIUM is 143.02 MEQ/L.

And the “TOTAL BILIRUBIN” value [1]?
The value was 0.2 mg/dL.

And the “TOTAL PROTEIN” value [1]?
Its value is 5.88 G/DL.

What about the “URIC ACID” value [1] of the same molecule?
Its value is 0.68 mg/dL.

What about the “ABSOLUTE BASOPHIL” value [2] of the same molecule?
The value was 0 CELLS/uL.

What about the “ABSOLUTE EOSINOPHIL” value [2] of the same molecule?
Its value is 14.67 CELLS/uL.

And the “ABSOLUTE LYMPHOCYTE” value [2]?
The value was 9629.83 CELLS/uL.

What about the “ABSOLUTE MONOCYTE” value [2] of the same molecule?
Its value is 72.5 CELLS/uL.

And the “ABSOLUTE SEGMENTED NEUTROPHIL” value [2]?
The value was 1049.67 CELLS/uL.

And the BASOPHIL [2]?
Its BASOPHIL is 0%.

And the EOSINOPHIL [2]?
Its EOSINOPHIL is 0.17%.

What about the “ERYTHROCYTE COUNT” value [2] of the same molecule?
Its value is 5.36 x10E6/uL.

And the HEMATOCRIT [2]?
The HEMATOCRIT was 33.82%.

What about the HEMOGLOBIN [2] of the same molecule?
The HEMOGLOBIN was 13.48 G/DL.

What about the “LEUKOCYTE COUNT” value [2] of the same molecule?
The value was 10.77 x10E3/uL.

And the LYMPHOCYTE [2]?
Its LYMPHOCYTE is 90.17%.

And the “MEAN CORPUSCULAR HEMOGLOBIN” value [2]?
Its value is 25.28 pg.

And the “MEAN CORPUSCULAR HEMOGLOBIN CONCENTRATION” value [2]?
Its value is 39.92 G/DL.

And the “MEAN CORPUSCULAR VOLUME” value [2]?
The value was 63.3 fL.

What about the MONOCYTE [2] of the same molecule?
The MONOCYTE was 0.67%.

And the NEUTROPHIL [2]?
The NEUTROPHIL was 9%.

And the “NUCLEATED RED BLOOD CELLS” value [2]?
Its value is 0.17 /100WBC.

What about the “PLATELET COUNT” value [2] of the same molecule?
The value was 1275.33 x10E3/uL.

What about the “ALANINE AMINOTRANSFERASE” value [2] of the same molecule?
Its value is 93.67 u/L.

What about the ALBUMIN [2] of the same molecule?
Its ALBUMIN is 4.17 G/DL.

And the “ALKALINE PHOSPHATASE” value [2]?
Its value is 402.5 u/L.

What about the “ASPARTATE AMINOTRANSFERASE” value [2] of the same molecule?
The value was 122.83 u/L.

What about the “BLOOD UREA NITROGEN” value [2] of the same molecule?
The value was 14.75 mg/dL.

What about the “CARBON DIOXIDE” value [2] of the same molecule?
The value was 26.4 mmol/L.

What about the CHLORIDE [2] of the same molecule?
The CHLORIDE was 98.5 MEQ/L.

What about the CHOLESTEROL [2] of the same molecule?
The CHOLESTEROL was 57.5 mg/dL.

And the “CREATINE PHOSPHOKINASE” value [2]?
The value was 305.17 u/L.

What about the CREATININE [2] of the same molecule?
Its CREATININE is 0.21 mg/dL.

And the GLUCOSE [2]?
The GLUCOSE was 142 mg/dL.

And the “LACTATE DEHYDROGENASE” value [2]?
Its value is 83.5 u/L.

What about the LIPASE [2] of the same molecule?
Its LIPASE is 85.83 u/L.

And the PHOSPHORUS [2]?
Its PHOSPHORUS is 8.18 mg/dL.

And the POTASSIUM [2]?
Its POTASSIUM is 5.46 MEQ/L.

And the SODIUM [2]?
The SODIUM was 144 MEQ/L.

What about the “TOTAL BILIRUBIN” value [2] of the same molecule?
The value was 0.25 mg/dL.

And the “TOTAL PROTEIN” value [2]?
Its value is 5.63 G/DL.

What about the “URIC ACID” value [2] of the same molecule?
Its value is 0.8 mg/dL.

And the “ABSOLUTE BASOPHIL” value [3]?
The value was 0 CELLS/uL.

What about the “ABSOLUTE EOSINOPHIL” value [3] of the same molecule?
Its value is 35.67 CELLS/uL.

What about the “ABSOLUTE LYMPHOCYTE” value [3] of the same molecule?
Its value is 8627 CELLS/uL.

And the “ABSOLUTE MONOCYTE” value [3]?
The value was 90.33 CELLS/uL.

And the “ABSOLUTE SEGMENTED NEUTROPHIL” value [3]?
Its value is 547 CELLS/uL.

What about the BASOPHIL [3] of the same molecule?
The BASOPHIL was 0%.

And the EOSINOPHIL [3]?
The EOSINOPHIL was 0.33%.

What about the “ERYTHROCYTE COUNT” value [3] of the same molecule?
Its value is 5.35 x10E6/uL.

And the HEMATOCRIT [3]?
Its HEMATOCRIT is 33.47%.

What about the HEMOGLOBIN [3] of the same molecule?
Its HEMOGLOBIN is 13.5 G/DL.

What about the “LEUKOCYTE COUNT” value [3] of the same molecule?
The value was 9.3 x10E3/uL.

What about the LYMPHOCYTE [3] of the same molecule?
The LYMPHOCYTE was 92.67%.

What about the “MEAN CORPUSCULAR HEMOGLOBIN” value [3] of the same molecule?
The value was 25.27 pg.

And the “MEAN CORPUSCULAR HEMOGLOBIN CONCENTRATION” value [3]?
The value was 40.33 G/DL.

What about the “MEAN CORPUSCULAR VOLUME” value [3] of the same molecule?
The value was 62.63 fL.

And the MONOCYTE [3]?
Its MONOCYTE is 1%.

And the NEUTROPHIL [3]?
Its NEUTROPHIL is 6%.

And the “NUCLEATED RED BLOOD CELLS” value [3]?
The value was 0 /100WBC.

And the “PLATELET COUNT” value [3]?
The value was 906.33 x10E3/uL.

And the “ALANINE AMINOTRANSFERASE” value [3]?
The value was 76.33 u/L.

What about the ALBUMIN [3] of the same molecule?
The ALBUMIN was 4 G/DL.

What about the “ALKALINE PHOSPHATASE” value [3] of the same molecule?
Its value is 385 u/L.

What about the “ASPARTATE AMINOTRANSFERASE” value [3] of the same molecule?
Its value is 87 u/L.

And the “BLOOD UREA NITROGEN” value [3]?
Its value is 12 mg/dL.

And the “CARBON DIOXIDE” value [3]?
The value was 31.67 mmol/L.

And the CHLORIDE [3]?
The CHLORIDE was 98 MEQ/L.

What about the CHOLESTEROL [3] of the same molecule?
Its CHOLESTEROL is 61 mg/dL.

What about the “CREATINE PHOSPHOKINASE” value [3] of the same molecule?
Its value is 318 u/L.

And the CREATININE [3]?
Its CREATININE is 0.17 mg/dL.

And the GLUCOSE [3]?
Its GLUCOSE is 154 mg/dL.

What about the “LACTATE DEHYDROGENASE” value [3] of the same molecule?
Its value is 114.33 u/L.

What about the LIPASE [3] of the same molecule?
The LIPASE was 9.67 u/L.

And the PHOSPHORUS [3]?
Its PHOSPHORUS is 10.63 mg/dL.

And the POTASSIUM [3]?
Its POTASSIUM is 5.46 MEQ/L.

And the SODIUM [3]?
The SODIUM was 142.7 MEQ/L.

And the “TOTAL BILIRUBIN” value [3]?
The value was 0.17 mg/dL.

And the “TOTAL PROTEIN” value [3]?
The value was 5.73 G/DL.

And the “URIC ACID” value [3]?
The value was 0.77 mg/dL.
